Results: patent publication US20250262228A1, “TREATMENT OF SPASTICITY AND PAIN IN RENALLY-IMPAIRED PATIENTS” (Jazz Pharmaceuticals Research UK Limited., priority 2022, published 2025)

Tests used:
[1] = for Cmax, Geometric LS Mean Ratio (Severe RI/Normal), Estimate / AUClast, Geometric LS Mean Ratio (Severe RI/Normal), Estimate: plasma, mixed model; for Cmax, Geometric LS Mean Ratio (Severe RI/Normal), Estimate / AUClast, Geometric LS Mean Ratio (Severe RI/Normal), Estimate / increase in AUClast in severe renal impairment versus normal renal function / AUC0-tlast Fold Change from Normal / increase in AUC in the renally impaired group compared to the normal group / mean plasma concentrations over time in renally impaired participants versus normal: 4 sprays; for AUClast, Geometric LS Mean Ratio (Severe RI/Normal), Estimate: significant when ratio >=2.0 plus 90% CI outside 0.5-2.0; for elimination in patients with renal impairment: renally impaired vs normal, after oromucosal spray; for increase in AUClast in severe renal impairment versus normal renal function / increase in AUC in the renally impaired group compared to the normal group: severe renal impairment vs normal, oromucosal spray; for AUC0-tlast Fold Change from Normal / mean plasma concentrations over time in renally impaired participants versus normal: severe renal impairment; for mean plasma concentrations over time in renally impaired participants versus normal: FIGS. 1-4
Description: Rationale: To date, no studies of administering the disclosed oromucosal spray in patients with varying degrees of renal impairment have been conducted. The present trial investigated the effects of the oromucosal spray in subjects with severe renal impairment. The principal aim of this trial was to assess the pharmacokinetic (PK) parameters following oromucosal administration in patients with severe renal impairment and individually matched healthy participants (i.e., otherwise identical patients with normal renal function).
Primary Objectives: Evaluated and compared the PK parameters of the oromucosal spray in participants with severe renal impairment or End-Stage Renal Disease (ESRD) to the PK profile in matched participants with normal renal function.
Primary Endpoints: The PK parameters, derived from the plasma concentration-time (Cmax) and area under the concentration-time curve calculated to the last concentration at time t (AUC0-t), or 48 hours (AUC0-48), for THC, CBD, and metabolites of THC and CBD (e.g., 11-OH-THC and 7-COOH-CBD).
The 4 sprays administered a total of 10.8 mg THC and 10 mg CBD. The duration of the trial was approximately 45 days, which included a screening period (up to 4 weeks), a treatment period (48 hours) and a safety follow-up period (2 weeks). Screening was performed within 28 to 2 days before dosing, and the assessments included measurement of serum creatinine to assess the eGFR as determined by the modification of diet in renal disease formula (MDRD) to verify initial participant eligibility for trial participation. Participants entered the screening period (Day −28 to −1). From Day −1, screened participants who continued to meet eligibility criteria were admitted to the clinical research facility and placed under observation continually from dosing until 48 hours postdose. […] On Day 1, participants received 4 sprays of the oromucosal spray.
Formulation Mode of Administration, Dose, and Regimen: The oromucosal spray was formulated as a mixture of THC and CBD extracts derived from Cannabis sativa L. The formulation contains THC and CBD as the most abundant cannabinoid constituents and also contains minor constituents including related cannabinoids and non-cannabinoid plant components, such as terpenes, sterols, and triglycerides. The spray contains 27 mg/mL of THC and 25 mg/mL of CBD dissolved in the excipients (e.g., ethanol and propylene glycol). Each spray delivers 100 μL containing 2.7 mg of THC and 2.5 mg of CBD.
Procedures: PK samplings were taken as close as to the nominal time point. Participants fasted overnight for at least 10 hours prior to the administration and for at least 4 hours thereafter. Standardized meals and beverages were provided at approximately 4 hours and 9 hours after dosing. With the exception of the water administered at the time of dosing, water was not permitted from 1 hour before until 1 hour after dosing. […] Cannabis or use of anticonvulsants, antidepressants, antipsychotic and anxiolytic medications were not allowed throughout the trial. Alcohol, nicotine products, and consuming food or beverages containing methylxanthines (caffeinated food or beverages) were prohibited for 24 hours prior to each visit and throughout the inpatient period.

[2] = renally impaired patients administered highly purified CBD; cited from earlier work

| Compound | Cmax, Geometric LS Mean Ratio (Severe RI/Normal), Estimate [1] | AUClast, Geometric LS Mean Ratio (Severe RI/Normal), Estimate [1] | elimination in patients with renal impairment [1] | increase in AUClast in severe renal impairment versus normal renal function [1] | AUC0-tlast Fold Change from Normal [1] [fold] | increase in AUC in the renally impaired group compared to the normal group [1] [fold] | mean plasma concentrations over time in renally impaired participants versus normal [1] | clinically relevant elevations of CBD, 7-OH-CBD and 7-COOH-CBD (mean AUClast ratios greater than 2 between the renally impaired and the control) [2] |
| --- | --- | --- | --- | --- | --- | --- | --- | --- |
| C=C(C)[C@@H]1CCC(C(=O)O)=C[C@H]1c1c(O)cc(CCCCC)cc1O [7-COOH-CBD] | 1.4 | 1.92 | relatively unchanged | < 2 fold | 1.92 |  |  |  |
| C=C(C)[C@@H]1CCC(CO)=C[C@H]1c1c(O)cc(CCCCC)cc1O [7-OH-CBD] | 1.89 | 4.59 | clinically significant prolonged elimination | approximately 3 fold | 4.59 | 4.59 |  |  |
| CCCCCc1cc(O)c2c(c1)OC(C)(C)[C@@H]1CCC(C(=O)O)=C[C@@H]21 [11-COOH-THC] | 1.15 | 1.26 | relatively unchanged |  | 1.26 |  |  |  |
| CCCCCc1cc(O)c2c(c1)OC(C)(C)[C@@H]1CCC(CO)=C[C@@H]21 [11-OH-THC] | 2.13 | 3.18 | clinically significant prolonged elimination |  | 3.18 | 3.18 | Much higher |  |
| C=C(C)[C@@H]1CCC(C)=C[C@H]1c1c(O)cc(CCCCC)cc1O [CBD, Cannabidiol, reference compound] | 1.11 | 1.95 | relatively unchanged |  | 1.95 |  | elevated |  |
| CCCCCc1cc(O)c2c(c1)OC(C)(C)[C@@H]1CCC(C)=C[C@@H]21 [THC, Δ-9-tetrahydrocannabinol, reference compound] | 0.8 | 1.34 | relatively unchanged |  | 1.34 |  | elevated |  |
| C=C(C)[C@@H]1CCC(C)=C[C@H]1c1c(O)cc(CCCCC)cc1O [highly purified form of CBD] |  |  |  |  |  |  |  | not observed |
